From patent publication US20030166583A1, “Dermal cytochrome P450 1A inhibitors and enhancers” (priority 2002, published 2003)
“Also recorded” adds a separate entry of the source. Like-named read-outs stand apart in the source and are kept apart here.

What was measured:
dermal CYP1A = assay: in vitro; conditions: for inhibitory effect on dermal CYP1A activity, in words: at certain concentration (1, 10 or 100 μM); for enhancing effect on dermal CYP1A activity, in words: at certain concentrations (1, 10 or 100 μM)
Description: (§1) Nude mice were sacrificed by decapitation.
(§2) The precipitate containing the microsomes was obtained.

liver CYP1A [1] = tested on: liver CYP1A
Description: (§3) Nude mice were sacrificed by decapitation. The skin and liver were immediately removed and kept in ice bath or 4° C. […] Connective tissue, blood, and fat were carefully removed from the tissue. Excess water content was removed from the homogenized tissue by tissue papers before the tissue was weighed.
(§4) The suspension of homogenized tissue in potassium chloride solution was transferred into a Teflon pestle-glass homogenizer for homogenization for six (6) times. Then, potassium chloride solution was added into the homogenized suspension to bring the volume to about four (4) times of the homogenized suspension. The diluted suspension was 5 transferred into a centrifuge tube and centrifuged at 4° C., 9000 xg, for twenty (20) minutes. The supernatant containing microsomes from skin or liver tissue and other soluble substance were removed and the volume of the supernatant was brought up to four (4) times of the weight of the tissue by adding potassium chloride solution. The diluted supernatant was transferred into a centrifuge tube and centrifuged at 4° C., 100,000 xg, for one (1) hour (Beckman L8-80M). The precipitate containing the microsomes was obtained. Potassium chloride solution was added into the precipitate to bring the volume up to four (4) times of the weight of the tissue, and the suspension was centrifuged at 4° C., 100,000 xg for one (1) hour, to obtain the washed microsomes, which were stored at −78° C. in 0.1M KH2PO4-K2HPO4 buffer (pH=7.4).
(§5) The enzymatic activity of CYP1A was determined based on the activity of 7-ethoxyresorufin-O-deethylase (i.e., for CYP1A) and 7-methoxyresorufin-O-demethylase (i.e., CYP1A2). […] Except for the blank group, the reaction was triggered by adding 0.54 μM NADPH. In the test tube (16×100 mm), the reaction was carried out for ten (10) minutes at constant temperature (37° C.) with vibration and without light Methanol 2.5 ml was added into the reaction mixture to stop the reaction. Protein precipitate was removed from the reaction mixture by centrifuging the reaction mixture at 180 xg for ten (10) minutes. The supernatant was tested for florescent intensity with 550 nm as the excitation wavelength and 585 nm the emission wavelength. The florescent intensity was compared with 0.01 μM-0.1 μM standard Rhodamine B solution to obtain the reading of the CYP1A enzyme activity.

CYP1A [2] = assay: in vitro; conditions: nude, mouse
Description: as §1, §2

CYP1A [3] = assay: Liver microsomal CYP1A enzymatic activity, inhibition or enhancement; conditions: nude, mouse
Description: as §3, §4, §5

liver CYP1A [4] = assay: as above; conditions: at certain concentration (1, 10 or 100 μM)
Description: as §3, §4, §5

[5] = pH 7.8, dermal CYP1A activity (% of control group)
[6] = pH 7.8, inhibition of dermal CYP1A activity
[7] = liver microsomes, pH 7.8, probe 7-ethoxyresorufin

activity at 10 min, 1 µM (CYP1A [2]; [5])	activity at 10 min, 10 µM (CYP1A [2]; [5])	activity at 10 min, 100 µM (CYP1A [2]; [5])	activity at 10 min, 1 µM (CYP1A [3]; [7])	activity at 10 min, 10 µM (CYP1A [3]; [7])	activity at 10 min, 100 µM (CYP1A [3]; [7])	enhancing effect on liver CYP1A activity, in words (liver CYP1A [4])	activity at 10 min, 1 µM (CYP1A [2]; pH 7.8)	activity at 10 min, 10 µM (CYP1A [2]; pH 7.8)	activity at 10 min, 100 µM (CYP1A [2]; pH 7.8)	inhibition at 10 min, 100 µM (CYP1A [2]; pH 7.8)	Compound	inhibitory effect on liver CYP1A activity, in words (liver CYP1A [4])	inhibitory effect on dermal CYP1A activity, in words (dermal CYP1A)	other results
199%	130%	96.4%	117%	99.9%	94.7%	enhancing effect					CC12CCC(CC1)C(C)(C)O2 [Cineole]	inhibitory effects		inhibition at 10 min, 100 µM (CYP1A [2]; [6]): ~5%
			108%	97.3%	43.8%	enhancing effect	64.3%	54.3%	32.9%	~67%	COc1ccc(-c2cc(=O)c3c(O)cc(O[C@@H]4O[C@H](CO[C@@H]5O[C@@H](C)[C@H](O)[C@@H](O)[C@H]5O)[C@@H](O)[C@H](O)[C@H]4O)cc3o2)cc1O [Diosmin]	inhibitory effects		
			103%	104%	97.7%	enhancing effect		57.3%	52.2%		CC(C)[C@@H](C)/C=C/[C@@H](C)[C@H]1CC[C@H]2C3=CC=C4C[C@@H](O)CC[C@]4(C)[C@H]3CC[C@]12C [Ergosterol]	inhibitory effects		
			118%	99.9%	89.1%	enhancing effect	98.9%	102%	107%		CC1(C)[C@@H](O[C@H]2O[C@H](C(=O)O)[C@@H](O)[C@H](O)[C@H]2O[C@@H]2O[C@H](C(=O)O)[C@@H](O)[C@H](O)[C@H]2O)CC[C@]2(C)[C@H]3C(=O)C=C4[C@@H]5C[C@@](C)(C(=O)O)CC[C@]5(C)CC[C@@]4(C)[C@]3(C)CC[C@@H]12 [Glycyrrihizin, Glycyrrhizin]	inhibitory effects		
			94%	99.9%	87.3%						CC1(C)CC[C@]2(C(=O)O)CC[C@]3(C)C(=CC[C@@H]4[C@@]5(C)CC[C@H](O)C(C)(C)[C@@H]5CC[C@]43C)[C@@H]2C1 [Oleanolic acid]	inhibitory effects	inhibition effects	activity at 10 min, 1 µM (CYP1A [2]; skin (dermal) microsomes, pH 7.8, probe 7-ethoxyresorufin, dermal CYP1A activity (% of control group), compound 1 μM, skin microsomes, mean of at least 3 repeats): 24%; activity at 10 min, 10 µM (CYP1A [2]; skin (dermal) microsomes, pH 7.8, probe 7-ethoxyresorufin, dermal CYP1A activity (% of control group), compound 10 μM, skin microsomes, mean of at least 3 repeats): 25.7%; activity at 10 min, 100 µM (CYP1A [2]; skin (dermal) microsomes, pH 7.8, probe 7-ethoxyresorufin, dermal CYP1A activity (% of control group), compound 100 μM, skin microsomes, mean of at least 3 repeats): 46.7%; inhibition at 10 min, 1 µM (CYP1A [2]; skin (dermal) microsomes, pH 7.8, probe 7-ethoxyresorufin, inhibition of dermal CYP1A activity, compound 1 μM): ~76%
91%	105%	104%	123%	124%	121%	enhancing effect					C[C@@]12C[C@@]3(O)O[C@@H](O1)[C@]1(COC(=O)c4ccccc4)[C@H]3C[C@@]12O[C@@H]1O[C@H](CO)[C@@H](O)[C@H](O)[C@H]1O [Paeoniflorin]			
			114%	86.7%	19.2%	enhancing effect	67.9%	41.9%	8.37%	~92%	O=c1c(O)c(-c2ccc(O)c(O)c2)oc2cc(O)cc(O)c12 [Quercetin]	inhibitory effects; also recorded: most inhibitory effect; also recorded: most effective inhibitors		

Second part, the compound before the results:

Compound	activity at 10 min, 1 µM (CYP1A [2]; [5])	activity at 10 min, 10 µM (CYP1A [2]; [5])	activity at 10 min, 100 µM (CYP1A [2]; [5])	activity at 10 min, 1 µM (CYP1A [3]; [7])	activity at 10 min, 10 µM (CYP1A [3]; [7])	activity at 10 min, 100 µM (CYP1A [3]; [7])	enhancing effect on liver CYP1A activity, in words (liver CYP1A [4])	activity at 10 min, 1 µM (CYP1A [2]; pH 7.8)	activity at 10 min, 10 µM (CYP1A [2]; pH 7.8)	activity at 10 min, 100 µM (CYP1A [2]; pH 7.8)	inhibition at 10 min, 100 µM (CYP1A [2]; pH 7.8)	inhibitory effect on liver CYP1A activity, in words (liver CYP1A [4])	inhibitory effect on dermal CYP1A activity, in words (dermal CYP1A)	other results
O=c1cc(-c2ccccc2)oc2c1ccc1ccccc12 [Alpha-NF, α-naphthoflavone]														dose dependence of the inhibitory effect on dermal CYP1A (dermal CYP1A): dose-dependent; inhibition of dermal microsomal CYP1A activity (dermal CYP1A): more than 90%; dermal CYP1A activity (% of control group) (dermal CYP1A; 100 µM): 0.83%; liver CYP1A activity (% of control group) (liver CYP1A [1]; 1 µM): 32.91%; liver CYP1A activity (% of control group) (liver CYP1A [1]; 10 µM): 11.06%; liver CYP1A activity (% of control group) (liver CYP1A [1]; 100 µM): 7.77%
O=c1c(-c2ccc(O)cc2)coc2cc(O[C@@H]3O[C@H](CO)[C@@H](O)[C@H](O)[C@H]3O)ccc12 [Daidzin]				110%	112%	111%	enhancing effect	111%	84.2%	70.4%	~30%		inhibition effects	enhancing effect on dermal CYP1A activity, in words (dermal CYP1A): enhancing effects
COc1ccc(-c2coc3cc(O)ccc3c2=O)cc1 [Formononetin]	67%	109%	85.9%	121%	144%	145%	enhancing effect; also recorded: most enhancing effect							inhibition at 10 min, 1 µM (CYP1A [2]; [6]): ~33%
O=c1c(-c2ccc(O)cc2)coc2cc(O)cc(O)c12 [Genistein]				109%	108%	109%	enhancing effect	77.4%	60.2%	35.4%	~65%		inhibition effects	
O=c1c(O[C@@H]2O[C@H](CO)[C@@H](O)[C@H](O)[C@H]2O)c(-c2ccc(O)c(O)c2)oc2cc(O)cc(O)c12 [Isoquercitrin]	112%	67%	44.2%	99%	104%	95.7%	enhancing effect					inhibitory effects	inhibition effects	inhibition at 10 min, 100 µM (CYP1A [2]; [6]): ~56%; enhancing effect on dermal CYP1A activity, in words (dermal CYP1A): enhancing effects
O=c1c(O)c(-c2ccc(O)cc2)oc2cc(O)cc(O)c12 [Kaempferol]	~34%	~22%	0%	100%	68.9%	18.1%						inhibitory effects; also recorded: most inhibitory effect; also recorded: most effective inhibitors		inhibition at 10 min, 100 µM (CYP1A [2]; [6]): > 90%; dose dependence of the inhibitory effect on dermal CYP1A (dermal CYP1A): dose-dependent effect; dermal CYP1A activity (% of control group) (dermal CYP1A; nude, mouse, 10 min, 1 µM, pH 7.8): 33.73%; dermal CYP1A activity (% of control group) (dermal CYP1A; nude, mouse, 10 min, 10 µM, pH 7.8): 22.35%; inhibition at 10 min, 100 µM (CYP1A [3]; [7]): ~82%
CCCCCCCCCCCCO [Lauryl alcohol]				113%	115%	101%	enhancing effect	88.2%	97.2%	52.4%	~48%			
CC(Cc1ccc(O)c(O)c1)C(C)Cc1ccc(O)c(O)c1 (stereo not drawn) [Nordihydroguaiaretic acid]				140%	147%	119%	enhancing effect; also recorded: most enhancing effect	110%	96.6%	59.5%	~41%			
O=C(O)c1ccc(O)c(O)c1 [Protocatechuic acid]	138%	121%	102%	119%	123%	107%	enhancing effect							
C[C@@H]1O[C@@H](Oc2c(-c3ccc(O)c(O)c3)oc3cc(O)cc(O)c3c2=O)[C@H](O)[C@H](O)[C@H]1O [Quercitrin]					104%	89.2%	enhancing effect	87.8%	77.1%	75%	~25%	inhibitory effects	inhibition effects	activity at 10 min, 1 µM (CYP1A [3]; pH 7.8): 109%
C[C@@H]1O[C@@H](OC[C@H]2O[C@@H](Oc3c(-c4ccc(O)c(O)c4)oc4cc(O)cc(O)c4c3=O)[C@H](O)[C@@H](O)[C@@H]2O)[C@H](O)[C@H](O)[C@H]1O [Rutin]	94.1%	98.4%	59.2%	117%	124%	90.7%	enhancing effect					inhibitory effects	inhibition effects	inhibition at 10 min, 100 µM (CYP1A [2]; [6]): ~41%; enhancing effect on dermal CYP1A activity, in words (dermal CYP1A): enhancing effects
O=c1ccc2ccc(O)cc2o1 [Umbelliferone]				120%	119%		enhancing effect	72.5%	52.7%	75.8%				inhibition at 10 min, 10 µM (CYP1A [2]; pH 7.8): ~47%
